Assay results reported in patent US11203633B2, “Polynucleotides encoding antibodies or antigen binding fragments thereof that bind pseudomonas perv” (priority 2011, dated 2021).

Legend:
[1] = test system: P. aeruginosa strains (PAO1, 33356, 6294, 6077, 6206); test: Acute pneumonia model in mice, organ burden (CFU in lung, spleen, kidneys); assay type: in vivo, Pseudomonas aeruginosa
Protocol: (§1) Antibodies or PBS were administered 24 hours before infection in each model. P. aeruginosa acute pneumonia, keratitis, and thermal injury infection models were performed as described (DiGiandomenico, A., et al., Proc Natl Acad Sci USA 104, 4624-4629 (2007)), with modifications. In the acute pneumonia model, BALB/c mice (The Jackson Laboratory) were infected with P. aeruginosa strains suspended in a 0.05 ml inoculum. In the thermal injury model, CF-1 mice (Charles River) received a 10% total body surface area burn with a metal brand heated to 92° C. for 10 seconds. Animals were infected subcutaneously with P. aeruginosa strain 6077 at the indicated dose. For organ burden experiments, acute pneumonia was induced in mice followed by harvesting of lungs, spleens, and kidneys 24 hours post-infection for determination of CFU.
Organ burden of Pseudomonas-infected mice was also studied in response to administration of V2L2. FIG. 14 (A) Mice were treated with either 1 mg/kg R347 (control), or 1 mg/kg, 0.2 mg/kg, or 0.07 mg/kg of V2L2 and then were infected intranasally with 1.2×10^6 cfu of Pseudomonas 6206. FIG. 14 (B) Mice were also treated with either 15 mg/kg R347 (negative control); 15.0 mg/kg, 5.0 mg/kg, or 1.0 mg/kg mAb166 (positive control); or 5.0 mg/kg, 1.0 mg/kg, or 0.2 mg/kg V2L2 and then were infected intranasally with 5.5×10^6 cfu of Pseudomonas 6206.
The in vivo effect of combination administration of anti-Psl and anti-PcrV binding domains was further studied in mice using the antibodies V2L2 and WapR-004 (RAD). Groups of mice were treated with R347 (2.1 mg/kg—negative control), V2L2 (0.1 mg/kg), W4-RAD (0.5 mg/kg), or V2L2/W4 combination (either 0.1, 0.5, 1.0 or 2.0 mg/kg each). Twenty-four hours post-administration of antibody, all mice were infected with an inoculum containing 5.25×10^5 cfu 6206 (O11-ExoU+). Twenty-four hours post infection, lungs, spleens, and kidneys were harvested, homogenized, and plated for colony forming unit (CFU) identification per gram of tissue.

[2] = test system: luminescent P. aeruginosa serogroup 011 strain (9882-80.lux); test: OPK assay, 9882-80.lux; assay type: cell-based, Pseudomonas aeruginosa; settings: strain 9882-80 (O11); FIG. 2B
Protocol: This example describes the evaluation of prioritized human IgG1 antibodies to promote OPK of P. aeruginosa. […] OPK assays were performed as described in (DiGiandomenico, A., et al., Infect Immun 72, 7012-7021 (2004)), with modifications. Briefly, assays were performed in 96-well plates using 0.025 ml of each OPK component; P. aeruginosa strains; diluted baby rabbit serum; differentiated HL-60 cells; and monoclonal antibody. In some OPK assays, luminescent P. aeruginosa strains, which were constructed as described (Choi, K. H., et al., Nat Methods 2, 443-448 (2005)), were used. Luminescent OPK assays were performed as described above but with determination of relative luciferase units (RLUs) using a Perkin Elmer ENVISION Multilabel plate reader (Perkin Elmer).
The ability of the WapR-004 and Cam-003 antibodies to mediate OPK activity against another clinically relevant 0-antigen serotype strain, 9882-80.lux, was evaluated.

[3] = test system: P. aeruginosa strains 6077, 6206, 6294; test: Thermal injury model in mice, survival; assay type: in vivo, Pseudomonas aeruginosa; settings: 6077 2×10^5 CFU, FIG. 8E
Protocol: as §1
Survival effect of the Bs4-GLO bispecific antibody was evaluated in a P. aeruginosa thermal injury model against different P. aeruginosa strains. […] Animals were treated with Bs4-GLO or […] to induction of thermal injury and subcutaneous infection with P. aeruginosa strain (A) 6077 (O11-ExoU^+) or (B) 6206 (O11-ExoU^+) or (C) 6294 (06) directly under the wound.
(A) Animals were treated with Bs4-GLO or R347 (A) 4h hours or (B) 12 hours after induction of thermal injury and subcutaneous infection with P. aeruginosa strain 6077 (O11-ExoU^+) directly under the wound.

Cam-003: anti-Psl human IgG1 monoclonal antibody; VH SEQ ID NO:1, VL SEQ ID NO:2
viable CFU vs. R347, Mann-Whitney U-test P ([1]; 6077 1×10^6 CFU, lung, 45 mg/kg, FIG. 7D): 0.0005
viable CFU vs. R347, Mann-Whitney U-test P ([1]; 6077, kidneys, 5 mg/kg, FIG. 7D): 0.0021
viable CFU vs. R347, Mann-Whitney U-test P ([1]; 6077, kidneys, 15 mg/kg, FIG. 7D): 0.0355
viable CFU vs. R347, Mann-Whitney U-test P ([1]; 6077, kidneys, 45 mg/kg, FIG. 7D): 0.0191
viable CFU vs. R347, Mann-Whitney U-test P ([1]; 6077, lung, 5 mg/kg, FIG. 7D): 0.0007
viable CFU vs. R347, Mann-Whitney U-test P ([1]; 6077, lung, 15 mg/kg, FIG. 7D): 0.0003
viable CFU vs. R347, Mann-Whitney U-test P ([1]; 6077, spleen, 5 mg/kg, FIG. 7D): 0.0089
viable CFU vs. R347, Mann-Whitney U-test P ([1]; 6077, spleen, 15 mg/kg, FIG. 7D): 0.0089
viable CFU vs. R347, Mann-Whitney U-test P ([1]; 6077, spleen, 45 mg/kg, FIG. 7D): 0.0015
viable CFU vs. R347, Mann-Whitney U-test P ([1]; 6294 6.25×10^6 CFU, lung, 5 mg/kg, FIG. 7C): 0.0068
viable CFU vs. R347, Mann-Whitney U-test P ([1]; 6294 6.25×10^6 CFU, lung, 15 mg/kg, FIG. 7C): 0.0039
viable CFU vs. R347, Mann-Whitney U-test P ([1]; 6294 6.25×10^6 CFU, lung, 45 mg/kg, FIG. 7C): 0.0003
viable CFU vs. R347, Mann-Whitney U-test P ([1]; 6294 6.25×10^6 CFU, spleen, 5 mg/kg, FIG. 7C): 0.0012
viable CFU vs. R347, Mann-Whitney U-test P ([1]; 6294 6.25×10^6 CFU, spleen, 15 mg/kg, FIG. 7C): 0.0230
viable CFU vs. R347, Mann-Whitney U-test P ([1]; 6294 6.25×10^6 CFU, spleen, 45 mg/kg, FIG. 7C): 0.0057
viable CFU vs. R347, Mann-Whitney U-test P ([1]; 33356 1×10^7 CFU, lung, 45 mg/kg, FIG. 7B): 0.0010
viable CFU vs. R347, Mann-Whitney U-test P ([1]; 33356, lung, 5 mg/kg, FIG. 7B): 0.0045
viable CFU vs. R347, Mann-Whitney U-test P ([1]; PAO1 1.1×10^7 CFU, lung, 45 mg/kg, FIG. 7A): 0.0015
viable CFU vs. R347, Mann-Whitney U-test P ([1]; PAO1, kidneys, 15 mg/kg, FIG. 7A): 0.0056
viable CFU vs. R347, Mann-Whitney U-test P ([1]; PAO1, kidneys, 45 mg/kg, FIG. 7A): 0.0092
viable CFU vs. R347, Mann-Whitney U-test P ([1]; PAO1, lung, 5 mg/kg, FIG. 7A): 0.0015
viable CFU vs. R347, Mann-Whitney U-test P ([1]; PAO1, lung, 15 mg/kg, FIG. 7A): 0.0021
viable CFU vs. R347, Mann-Whitney U-test P ([1]; PAO1, spleen, 15 mg/kg, FIG. 7A): 0.0367
viable CFU vs. R347, Mann-Whitney U-test P ([1]; PAO1, spleen, 45 mg/kg, FIG. 7A): 0.0120
organ burden, dose dependence ([1]; cytotoxic strain 6077, FIG. 7D): the low dose was as effective as the higher dose
dissemination to the spleen and kidneys ([1]; mice infected with PAO1, 6294 and 6077, FIG. 7A, C, D): marked effect in reducing dissemination to the spleen and kidneys
lung burden ([1]; strains PAO1, 33356, 6294, 6077, FIG. 7A-D): effective at reducing P. aeruginosa lung burden against all four strains tested
OPK activity [2]: OPK activity extends to strain 9882-80 (O11)
survival R347 vs. Cam-003, log-rank P ([3]; 5 mg/kg): 0.0017
survival R347 vs. Cam-003, log-rank P ([3]; 15 mg/kg): 0.0094
protection compared to the antibody-treated control ([3]; CF-1 mice): significant protection at 15 and 5 mg/kg
